From PMC8316236, “Mechanistic physiology-based pharmacokinetic modeling to elucidate vincristine-induced peripheral neuropathy following treatment with novel kinase inhibitors” (Cancer Chemotherapy and Pharmacology, 2021) come the findings set out here.

Molecules are shown by their SMILES.

By IC50 is commonly meant the point on the concentration scale where inhibition reaches its midpoint. A lower IC50 goes with greater potency in that assay.

Assay [1] concerns the target T1, P-glycoprotein (P-gp, ABCB1) (Homo sapiens, UniProt P08183).
T1 construct: inside-out membrane vesicles prepared from HEK293 cells overexpressing human P-gp
Briefly: inside-out vesicular transport inhibition assay with tritiated probe substrate; also Caco-2 bidirectional transport ([…]). It counts as biochemical. A general note: Caco-2 cells form a polarised layer with tight junctions and transporters.

Assay [2] deals with T1, P-glycoprotein (P-gp, ABCB1). In words: inside-out vesicular transport inhibition assay with tritiated probe substrate. Format: biochemical.

T1 sequence (P08183 whole entry): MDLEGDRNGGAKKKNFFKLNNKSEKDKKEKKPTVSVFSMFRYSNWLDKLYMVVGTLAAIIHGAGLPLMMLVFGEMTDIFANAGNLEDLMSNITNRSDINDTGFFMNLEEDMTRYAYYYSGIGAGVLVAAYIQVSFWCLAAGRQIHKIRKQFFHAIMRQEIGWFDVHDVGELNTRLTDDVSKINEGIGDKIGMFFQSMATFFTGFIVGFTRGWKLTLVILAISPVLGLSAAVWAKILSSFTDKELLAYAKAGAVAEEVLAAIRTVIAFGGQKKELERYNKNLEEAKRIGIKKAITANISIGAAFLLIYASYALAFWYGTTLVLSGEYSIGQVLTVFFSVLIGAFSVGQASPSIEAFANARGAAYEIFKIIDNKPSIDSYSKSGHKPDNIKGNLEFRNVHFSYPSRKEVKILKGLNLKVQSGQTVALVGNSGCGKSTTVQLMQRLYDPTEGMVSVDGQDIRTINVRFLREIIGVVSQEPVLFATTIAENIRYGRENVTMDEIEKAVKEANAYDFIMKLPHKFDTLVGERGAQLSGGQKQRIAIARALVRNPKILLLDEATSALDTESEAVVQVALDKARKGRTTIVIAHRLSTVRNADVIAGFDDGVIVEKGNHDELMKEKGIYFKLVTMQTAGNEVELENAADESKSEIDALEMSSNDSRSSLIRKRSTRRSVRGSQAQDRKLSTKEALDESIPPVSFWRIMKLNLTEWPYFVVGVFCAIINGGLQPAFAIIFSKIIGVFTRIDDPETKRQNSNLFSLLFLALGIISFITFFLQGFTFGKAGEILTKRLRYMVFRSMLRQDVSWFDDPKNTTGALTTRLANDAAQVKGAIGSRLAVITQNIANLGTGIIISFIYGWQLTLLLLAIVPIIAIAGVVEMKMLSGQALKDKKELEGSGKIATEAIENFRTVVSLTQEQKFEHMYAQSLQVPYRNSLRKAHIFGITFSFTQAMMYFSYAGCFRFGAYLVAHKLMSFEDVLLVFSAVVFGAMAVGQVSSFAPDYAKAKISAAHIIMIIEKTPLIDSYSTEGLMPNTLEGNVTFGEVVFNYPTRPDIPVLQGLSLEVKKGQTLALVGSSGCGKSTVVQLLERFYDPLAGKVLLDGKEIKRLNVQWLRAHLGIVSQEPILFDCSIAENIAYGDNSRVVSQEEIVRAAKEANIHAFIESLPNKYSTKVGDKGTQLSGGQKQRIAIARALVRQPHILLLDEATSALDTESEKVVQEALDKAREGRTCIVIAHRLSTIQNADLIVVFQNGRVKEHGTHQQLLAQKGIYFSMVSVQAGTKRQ

The molecule `CC#CC(=O)N1CCC[C@H]1c1nc(-c2ccc(C(=O)Nc3ccccn3)cc2)c2c(N)nccn12` [acalabrutinib] gave an IC50 in assay [1] of 57 µM.
In assay [2], `C=CC(=O)N1CCC[C@@H](n2nc(-c3ccc(Oc4ccccc4)cc3)c3c(N)ncnc32)C1` [ibrutinib] returned an IC50 of 6 µM.
